Measured values taken from patent publication US8759522B2, “Inhibitors of protein tyrosine kinase activity” (Methylgene Inc., priority 2008, dated 2014).

Experiments:
[1] = target: T1, VEGFR2 (KDR) (Homo sapiens, UniProt P35968); experiment: In vitro receptor tyrosine kinase assay (VEGF receptor KDR), DELFIA; type: biochemical; conditions: recombinant GST-VEGFR2 catalytic domain, ATP 0.6 uM, enzyme 5 nM
T1 construct: made in house; host or cells: Sf9 cells (Spodoptera frugiperda), baculovirus (Bac-to-Bac)
T1 sequence (P35968 806-1356): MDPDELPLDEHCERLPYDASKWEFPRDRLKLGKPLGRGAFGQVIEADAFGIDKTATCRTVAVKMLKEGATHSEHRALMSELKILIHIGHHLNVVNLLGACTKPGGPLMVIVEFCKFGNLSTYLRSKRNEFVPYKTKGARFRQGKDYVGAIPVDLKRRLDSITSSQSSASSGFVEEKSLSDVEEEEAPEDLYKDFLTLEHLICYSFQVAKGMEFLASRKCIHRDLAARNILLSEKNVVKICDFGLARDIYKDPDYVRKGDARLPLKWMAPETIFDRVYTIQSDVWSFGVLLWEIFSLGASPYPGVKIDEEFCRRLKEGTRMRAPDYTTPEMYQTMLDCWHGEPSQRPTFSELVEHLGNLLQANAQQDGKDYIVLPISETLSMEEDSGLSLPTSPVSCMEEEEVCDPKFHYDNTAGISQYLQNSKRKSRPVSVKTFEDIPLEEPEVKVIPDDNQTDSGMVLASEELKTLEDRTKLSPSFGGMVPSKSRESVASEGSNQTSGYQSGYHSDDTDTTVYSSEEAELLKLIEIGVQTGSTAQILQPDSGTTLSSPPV
Excerpt: In Vitro Receptor Tyrosine Kinase Assay (VEGF Receptor KDR)
This test measures the ability of compounds to inhibit the enzymatic activity of recombinant human VEGF receptor enzymatic activity.
A 1.6-kb cDNA corresponding to the catalytic domain of VEGFR2 (KDR) (Genbank accession number AF035121 amino acid 806 to 1356) is cloned into the Pst I site of the pDEST20 Gateway vector (Invitrogen) for the production of a GST-tagged version of that enzyme. This constuct is used to generate recombinant baculovirus using the Bac-to-Bac™ system according to the manucfacturer's instructions (Invitrogen).
The GST-VEGFR2806-1356 protein is expressed in Sf9 cells (Spodoptera frugiperda) upon infection with recombinant baculovirus construct. Briefly, Sf9 cells grown in suspension and maintained in serum-free medium (Sf900 II supplemented with gentamycin) at a cell density of about 2×10^6 cells/ml are infected with the above-mentioned viruses at a multiplicity of infection (MOI) of 0.1 during 72 hours at 27° C. with agitation at 120 rpm on a rotary shaker. Infected cells are harvested by centrifugation at 398 g for 15 min. Cell pellets are frozen at −80° C. until purification is performed.
All steps described in cell extraction and purification are performed at 4° C. Frozen Sf9 cell pellets infected with the GST-VEGFR2806-1356 recombinant baculovirus are thawed and gently resuspended in Buffer A (PBS pH 7.3 supplemented with 1 μg/ml pepstatin, 2 μg/ml Aprotinin and leupeptin, 50 μg/ml PMSF, 50 μg/ml TLCK and 10 μM E64 and 0.5 mM DTT) using 3 ml of buffer per gram of cells. Suspension is Dounce homogenized and 1% Triton X-100 is added to the homogenate after which it is centrifuged at 22500 g, 30 min., 4° C. The supernatant (cell extract) is used as starting material for purification of GST-VEGFR2806-1356.
The supernatant is loaded onto a GST-agarose column (Sigma) equilibrated with PBS pH 7.3. Following a four column volume (CV) wash with PBS pH 7.3+1% Triton X-100 and 4 CV wash with buffer B (50 mM Tris pH 8.0, 20% glycerol and 100mM NaCl), bound proteins are step eluted with 5 CV of buffer B supplemented with 5 mM DTT and 15 mM glutathion. GST-VEGFR2806-1356 enriched fractions from this chromatography step are pooled based on U.V. trace i.e. fractions with high O.D.280. Final GST-VEGFR2806-1356 protein preparations concentrations are about 0.7 mg/ml with purity approximating 70%. Purified GST-VEGFR2806-1356 protein stocks are aliquoted and frozen at −80° C. prior to use in enzymatic assay.
Inhibition of VEGFR/KDR is measured in a DELFIA™ assay (Perkin Elmer). The substrate poly(Glu4, Tyr) is immobilized onto black high-binding polystyrene 96-well plates. The coated plates are washed and stored at 4° C. During the assay, the enzyme is pre-incubated with inhibitor and Mg-ATP on ice in polypropylene 96-well plates for 4 minutes, and then transferred to the coated plates. The subsequent kinase reaction takes place at 30° C. for 10-30 minutes. ATP concentrations in the assay are 0.6 uM for VEGFR/KDR (2× the Km). Enzyme concentration is 5 nM. After incubation, the kinase reactions are quenched with EDTA and the plates are washed. Phosphorylated product is detected by incubation with Europium-labeled anti-phosphotyrosine MoAb. After washing the plates, bound MoAb is detected by time-resolved fluorescence in a Gemini SpectraMax reader (Molecular Devices). Compounds are evaluated over a range of concentrations and IC50's (concentration of compounds giving 50% inhibition of enzymatic activity) are determined. In the table, “a” indicates inhibitory activity at a concentration of less than 250 nanomolar; “b” indicates inhibitory activity at a concentration ≧250 but <500 nanomolar, “c” indicates inhibitory activity at ≧500 but <1000 nanomolar; and “d” indicates inhibitory activity ≧1000 nanomolar.

[2] = test system: VEGF-dependent Erk phosphorylation in HUVEC cells; experiment: VEGF-dependent Erk phosphorylation; type: cell-based; conditions: Homo sapiens, 1.5 h compound, VEGF165 150 ng/ml, phospho ERK1/2 Western blot
Excerpt: VEGF-Dependent Erk Phosphorylation
HUVEC cells were purchased from Cambrex Bio Science Walkersville, Inc and cultured according to the vendor's instructions. The full-length coding sequence of VEGF165 was cloned using the Gateway Cloning Technology (Invitrogen) for baculovirus expression Sf9 cells. VEGF165 was purified from conditioned media using a NaCl gradient elution from a HiTrap heparin column (GE Healthcare Life Sciences) followed by an imidazole gradient elution from a HiTrap chelating column (GE Healthcare Life Sciences), then buffer stored in PBS supplemented with 0.1% BSA and filter sterilized
Cells were seeded at 8000 cells/well of a 96 wells plate and grown for 48 hours. Cells were then grown overnight in serum and growth factor-free medium and exposed for 1.5 h to compounds dilutions. Following a 15 min incubation in medium, VEGF165 (150 ng/ml) cells were lysed in ice-cold lysis buffer (50 mM HEPES, pH 7.4, 150 mM NaCl, 1.5 mM MgCl2, 1% Triton X-100, 10% glycerol) containing 1 mM 4-(2 aminoethyl)benzenesulfonyl fluoride hydrochloride, 200 μM sodium orthovanadate, 1 mM sodium fluoride, 10 μg/mL leupeptin, 10 μg/mL aprotinin, 1 μg/mL pepstatin and 50 μg/mL Na-p-tosyl-L-lysine chloromethyl ketone hydrochloride and processed as Western blots to detect anti-phospho ERK1/2 (T202/Y204) (Cell Signaling Technologies).
lysates samples from single treatment wells were separated on 5-20% SDS-PAGE gels and immunobloting was performed using Immobilon polyvinylidene difluoride membranes (Amersham) according to the manufacturer's instructions.

Row | Compound | IC50 [1] [nM] | IC50 [2] [nM]
1 | COCCNCc1ccc(-c2cc3nccc(Oc4ccc(NC(=O)C5CC5)cc4F)c3s2)nc1 | 250 to 500 | 
2 | COCCNCc1ccc(-c2cc3nccc(Oc4ccc(NC(=O)N[C@@H]5CCOC5)cc4F)c3s2)nc1 | ≥ 1000 | < 250
3 | COCCNCc1ccc(-c2cc3nccc(Oc4ccc(NC(=O)CC(=O)NC5CCC5)cc4F)c3s2)nc1 | 250 to 500 | < 250
4 | COCCNCc1ccc(-c2cc3nccc(Oc4ccc(NC(=O)OC5CCCCC5)cc4F)c3s2)nc1 | ≥ 1000 | < 250
5 | COCCNCc1ccc(-c2cc3nccc(Oc4ccc(NC(=O)N[C@H]5CCOC5)cc4F)c3s2)nc1 | 500 to 1000 | < 250
6 | COCCNCc1ccc(-c2cc3nccc(Oc4ccc(NC(=O)CC(=O)Nc5cccc(C(N)=O)c5)cc4F)c3s2)nc1 | 250 to 500 | < 250
7 | COCCNCc1ccc(-c2cc3nccc(Oc4ccc(NC(=O)CC(=O)Nc5cccc(S(C)(=O)=O)c5)cc4F)c3s2)nc1 | < 250 | < 250
8 | COCCN(Cc1ccc(-c2cc3nccc(Oc4ccc(NC(=O)Nc5cccc(C(=O)N(C)C)c5)cc4F)c3s2)nc1)C(C)=O | < 250 | < 250
9 | COCCNCc1ccc(-c2cc3nccc(Oc4ccc(NC(=O)NC(C)C)cc4F)c3s2)nc1 | 500 to 1000 | < 250
10 | COCCNCc1ccc(-c2cc3nccc(Oc4ccc(NC(=O)Nc5ccc(F)cc5F)cc4F)c3s2)nc1 | < 250 | < 250
11 | O=C(Nc1ccc(Oc2ccnc3cc(-c4ccc(C5OCCCO5)cn4)sc23)c(F)c1)NC1CC1 | < 250 | < 250
12 | COCCN(Cc1ccc(-c2cc3nccc(Oc4ccc(NC(=O)Nc5cccc(S(C)(=O)=O)c5)cc4F)c3s2)nc1)C(=O)OC | < 250 | < 250
13 | COC[C@H](C)NCc1ccc(-c2cc3nccc(Oc4ccc(NC(=O)NC5CC5)cc4F)c3s2)nc1 | < 250 | < 250
14 | COCCN(Cc1ccc(-c2cc3nccc(Oc4ccc(NC(=O)NC5CC5)cc4F)c3s2)nc1)C(=O)OC | < 250 | 
15 | CCOC(=O)N(CCOC)Cc1ccc(-c2cc3nccc(Oc4ccc(NC(=O)NC5CC5)cc4F)c3s2)nc1 | < 250 | < 250
16 | COCCOCCOCCOCCNCc1ccc(-c2cc3nccc(Oc4ccc(NC(=O)NC5CC5)cc4F)c3s2)nc1 [drawing 129] | < 250 | < 250
17 | COCCNCc1cnc(-c2cc3nccc(Oc4ccc(NC(=O)NC5CC5)cc4F)c3s2)n1C [drawing 131] | < 250 | < 250
18 | COCCNCc1cnc(-c2cc3nccc(Oc4ccc(NC(=O)Nc5ccc(F)cc5F)cc4F)c3s2)n1C [drawing 134] | < 250 | < 250
19 | COCCN(Cc1cnc(-c2cc3nccc(Oc4ccc(NC(=O)NC5CC5)cc4F)c3s2)n1C)S(C)(=O)=O [drawing 137] | < 250 | < 250
20 | COCCN(Cc1ccc(-c2cc3nccc(Oc4ccc(NC(=O)NC5CC5)cc4F)c3s2)nc1)C(=O)[C@H](N)C(C)C [drawing 143] | < 250 | < 250
21 | COCCN(Cc1ccc(-c2cc3nccc(Oc4ccc(NC(=O)Nc5cccc(S(C)(=O)=O)c5)cc4F)c3s2)nc1)C(C)=O [drawing 152] | < 250 | < 250
22 | COCCNCc1ccc(-c2cc3nccc(Oc4ccc(NC(=O)NC5CCC5)cc4F)c3s2)nc1 [drawing 153] | < 250 | < 250
23 | COCCN(Cc1ccc(-c2cc3nccc(Oc4ccc(NC(=O)Nc5cccc(C(N)=O)c5)cc4F)c3s2)nc1)C(=O)OC [drawing 160] | < 250 | < 250

Continued, in another order:

Row | IC50 [1] [nM] | Compound | IC50 [2] [nM]
24 | < 250 | COCCNCc1cccc(-c2cc3nccc(Oc4ccc(NC(=O)NC5CC5)cc4F)c3s2)n1 | < 250
25 | < 250 | COCCNCc1ccc(-c2cc3nccc(Oc4ccc(NC(=O)Nc5cccc(C(N)=O)c5)cc4F)c3s2)nc1 | < 250
26 | < 250 | COCCNCc1ccc(-c2cc3nccc(Oc4ccc(NC(=O)Nc5cccc(S(C)(=O)=O)c5)cc4F)c3s2)nc1 | < 250
27 | < 250 | COCCNCc1cnc(-c2cc3nccc(Oc4ccc(NC(=O)Nc5cc(C(F)(F)F)ccc5F)cc4F)c3s2)n1C | < 250
28 | < 250 | COCCNCc1cnc(-c2cc3nccc(Oc4ccc(NC(=O)Nc5ccc(OC)cc5)cc4F)c3s2)n1C | < 250
29 | < 250 | COCCNCc1cnc(-c2cc3nccc(Oc4ccc(NC(=O)Nc5cccc(C(N)=O)c5)cc4F)c3s2)n1C | < 250
30 | < 250 | COCCNCc1ccc(-c2cc3nccc(Oc4ccc(NC(=O)Nc5cccc(C(=O)OC)c5)cc4F)c3s2)nc1 | 
31 | < 250 | CNC(=O)c1cccc(NC(=O)Nc2ccc(Oc3ccnc4cc(-c5ccc(CNCCOC)cn5)sc34)c(F)c2)c1 | 
32 | < 250 | COCCNCc1ccc(-c2cc3nccc(Oc4ccc(NC(=O)OC5CCC5)cc4F)c3s2)nc1 | < 250
33 | < 250 | COCCN(Cc1ccc(-c2cc3nccc(Oc4ccc(NC(=O)Nc5cccc(C(N)=O)c5)cc4F)c3s2)nc1)C(C)=O | < 250
34 | < 250 | COCCOCCOCCOCCN(Cc1ccc(-c2cc3nccc(Oc4ccc(NC(=O)NC5CC5)cc4F)c3s2)nc1)C(C)=O | < 250
35 | < 250 | COCCNCc1ccc(-c2cc3nccc(Oc4ccc(NC(=O)Nc5ccn(C)n5)cc4F)c3s2)nc1 | < 250
36 | < 250 | COCCNCc1ccc(-c2cc3nccc(Oc4ccc(NC(=O)Nc5cccc(C(=O)N(C)C)c5)cc4F)c3s2)nc1 | < 250
